Results from patent publication US11866695B2, “Methods and systems and related compositions for mixtures separation with a solid matrix” (CALIFORNIA INSTITUTE OF TECHNOLOGY, priority 2019, dated 2024).

Tested on: λ phage DNA
Assay: Zymo Quick-Viral DNA/RNA kit extraction with additional TPW, qPCR with 2.2× diluted eluent
Type: biochemical
Protocol: qPCR reactions contained 1× Bio-Rad SsoFast Supermix (1725201, Bio-Rad), PCR primers (IDT) at […] each, and were supplemented with nuclease-free water up to 10 μL. Each 96-well plate (thin-wall clear well, HSP9641, Bio-Rad) was sealed (Microseal B, MSB1001, Bio-Rad) and briefly spun in a Mini Plate Spinner Centrifuge (14-100-141, Fisher Scientific). Heating and real-time imaging were performed on the Bio-Rad CFX-96 Touch Real-Time PCR Detection System by heating to 95° C. for 5 min, cycling 40 times between 95° C. for 15 s, 60° C. for 15 s, and 72° C. for 20 s, and taking a melt-curve analysis. For the E. coli DNA dilution experiment, qPCR was run for 60 cycles. Fluorescence readings were taken at the end of each extension step. Quantification cycle (Cq) was determined when the software's automated baseline corrected fluorescence reached 200 RFU.
Three different silica-column kits were tested, including: Zymo ZR Viral DNA/RNA Kit (outdated protocol, D7021), Zymo Quick-DNA/RNA Kit (updated protocol, D7021), and the QIAquick PCR Purification Kit (28104, Qiagen). For all silica-column kits, fresh collection tubes were used after each spin and centrifugation speeds were set to 16,000×g. Centrifugation was performed on either an Eppendorf 5415D centrifuge (Eppendorf, Hauppauge, N.Y., USA) or a Thermo Fisher Scientific AccuSpin Micro 17R centrifuge (13-100-676). It was noted that the QIAquick protocol calls for 17,900×g, but instead was run at 16,000×g which was the max speed for the Eppendorf 5415D. For both Zymo kits, 750 μL lysed sample was prepared by mixing 125 μL sample with 125 μL Zymo 2×DNA/RNA Shield and 500 μL Viral DNA/RNA Buffer. For the Zymo ZR Viral DNA/RNA kit, 750 μL lysed sample was centrifuge for 1 min, 500 μL Zymo Viral Wash Buffer was centrifuged for 2 min, and 50 μL nuclease-free water was centrifuged for 30 s into a clean 1.5 mL tube. Optionally, either a dry spin or 300 μL TPW was centrifuged for 2 min in between the Viral Wash Buffer and elution steps. […] For the QIAquick PCR Purification Kit, 125 μL sample was mixed with 625 μL Buffer PB without indicator. 750 μL lysed sample was centrifuged for 30 s, followed by 750 μL Buffer PE for 30 s, a dry spin for 1 min, and 50 μL nuclease-free water for 1 min. Optionally, the dry spin was skipped or the dry spin was replaced with a 300 μL TPW and centrifuged for 1 min.
Of our TPW candidates, 1-undecanol was selected for further evaluation because (i) it was non-inhibitory for qPCR and LAMP reactions and (ii) as an alcohol, 1-undecanol may function similarly to ethanol- or isopropanol-based washes. In these experiments (testing criteria 1b and 2), a commercially purified λ phage DNA sample was first diluted to 2.5×10^6 copies and ran an NA extraction using the Zymo Quick-DNA/RNA Viral Kit. The experimental procedure either followed the manufacturer protocol or added an additional 300 μL 1-undecanol wash in between the Viral Wash Buffer and elution step. Using the manufacturer's protocol, the resulting eluent is approximately 49 μL, but with the added TPW the resulting eluent is approximately 48 μL aqueous phase and ˜1-2 μL 1-undecanol phase. To emphasize any potential inhibitory effects, a low dilution of eluent was used. For qPCR, a 2.2×dilution was achieved by adding 4.5 μL of eluent, 0.5 μL primers, and 5 μL qPCR reaction mix. For LAMP, a 2×dilution was achieved by adding 5 μL eluent, 0.5 μL primers, and 4.5 μL reaction mix. […] The ˜1-2 μL TPW separates from the aqueous phase and adheres to the walls of the tube, making it is easy to use a pipette to capture just the eluent.

`CCCCCCCCCCCO` [1-undecanol] was tested, and the Cq (2.2× eluent dilution, 3 columns, 9 samples) was 18.46±0.22 cycles, the qPCR reactions amplified (2.2× eluent dilution, amplified/total) was “all reactions amplified” and the “average Cq” value (27 reactions (9 columns)) was 19.7±2.5 cycles. For the same compound, the “wells with Cq between 18-22 cycles” value (27 reactions (9 columns)) was 25/27 and the “wells with a delayed Cq” value (27 reactions (9 columns)) was 2/27.
